From patent US20010049373A1, “Materials and methods for killing nematodes and nematode eggs” (priority 2000, published 2001)
Several values for one entry are separate records, joined by “and”; a condition that tells them apart may be missing. Equal values may be shown once.

Assays:
[1] = test system: gastrointestinal nematodes (trichostrongyle, Strongyloides, Trichuris, Nematodirus eggs); assay: Sheep Test II: fecal egg per gram (EPG) counts; format: in vivo; details: for % Change, Strongyles EPG-5 day vs EPG-pre, Total/Mean / Strongyles EPG-5 day (22-May), Total/Mean / % Change, Strongyles EPG-7 day vs EPG-pre, Total/Mean / Strongyles EPG-7 day (24-May), Total/Mean: group mean; for % Change, Strongyles EPG-5 day vs EPG-pre, Total/Mean / Strongyles EPG-5 day (22-May), Total/Mean / Strongyles EPG-5 day (22-May): 5 days after treatment; for % Change, Strongyles EPG-7 day vs EPG-pre, Total/Mean / Strongyles EPG-7 day (24-May), Total/Mean / % Change, Strongyles EPG-7 day vs EPG-pre / Strongyles EPG-7 day (24-May): 7 days after treatment; for Strongyles EPG-5 day (22-May) / % Change, Strongyles EPG-7 day vs EPG-pre / Strongyles EPG-7 day (24-May): individual sheep
Procedure: Sheep naturally infected with a variety of gastrointestinal nematodes are purchased from local sources and are transported to the test site. The animals are housed in a manner to preclude further infection by nematode larvae. The animals are evaluated for the presence of adequate nematode burdens by performing a standard fecal egg per gram (EPG) count. Eggs are differentiated into the following groups: trichostrongyle (strongyle), Strongyloides, Trichuris, or Nematodiris. Only sheep judged by the study parasitologist to have adequate nematode infections are retained as test subjects.
The sheep are fed good quality hay (no concentrated rations) and water ad libitum. Following a five day acclimation period, the sheep are randomly assigned by EPG count into the following treatment groups: Groups 1-9, various anthelmintic compounds of the present invention (test compound) dissolved in DMSO: Group 10, Positive Control (commercially available ivermectin for sheep); Group 11, non-treated Negative control (DMSO only). The first replicate of 1 I animals is randomly assigned to groups 1-1; the second replicate of 11 animals is randomly assigned to groups 1-11; and the third replicate of 11 animals is randomly assigned to groups 1-1. Thus 11 groups of 3 animals each are created.
The randomization is performed on fecal samples collected 24-48 hours prior to scheduled treatment. The EPG counts are performed according to Zimmerman Research SOP # NMEPG.99.01.
The placebo (DMSO), the commercially available drug, and the test anthelmintic compounds are administered in a 3 ml volume of DMSO by subcutaneous injection using a sterile syringe fitted with a sterile needle. The site of injection is clipped and swabbed with alcohol prior to injection. The animal is adequately immobilized for injection of the placebo, commercially available drug, or experimental compound.
Following treatment, the animals are observed at hourly intervals for the first 8 hours, then daily until necropsy. They are housed in a manner to prevent further nematode infections.
On the fifth day following treatment, fecal samples are obtained from each animal, properly labeled and used for EPG counts.
Seven days following treatment, all the sheep are weighed and humanely slaughtered in accordance with the Guide for the Care and Use of Laboratory Animals (DHEW Publication No. 86-23). Necropsy procedures are according to Zimmerman Research SOP # NCRGIH.00.01, Necropsy for Helminth Recovery, specifically for gastrointestinal nematodes. Fecal samples are taken for EPG counts during the sample collection process on this day.

[2] = test system: gastrointestinal nematodes; assay: Sheep Test II: nematode recovery at necropsy, controlled test efficacy; format: in vivo; details: for Mean Ct., Abomasum Haemonchus / Mean Ct., Abomasum Ostertagia / Mean Ct., Large Intest. Trichuris / Mean Ct., Small Intest. Nematodirus / Mean Ct., Small Intestine Trichostrongylus: group mean; for Mean Ct., Abomasum Haemonchus / Mean Ct., Abomasum Ostertagia / Mean Ct., Large Intest. Trichuris / Mean Ct., Small Intest. Nematodirus / Mean Ct., Small Intestine Trichostrongylus / Worm Counts, Abomasum Haemonchus / Worm Counts, Abomasum ostertagia / Worm Counts, Large Intest. Trichuris / Worm Counts, Small Intest. Nematodirus / Worm Counts, Small Intestine Trichostrongylus: necropsy seven days following treatment; for Worm Counts, Abomasum Haemonchus / Worm Counts, Abomasum ostertagia / Worm Counts, Large Intest. Trichuris / Worm Counts, Small Intest. Nematodirus / Worm Counts, Small Intestine Trichostrongylus: individual sheep
Procedure: Sheep naturally infected with a variety of gastrointestinal nematodes are purchased from local sources and are transported to the test site. The animals are housed in a manner to preclude further infection by nematode larvae. The animals are evaluated for the presence of adequate nematode burdens by performing a standard fecal egg per gram (EPG) count. Eggs are differentiated into the following groups: trichostrongyle (strongyle), Strongyloides, Trichuris, or Nematodiris. Only sheep judged by the study parasitologist to have adequate nematode infections are retained as test subjects. The sheep are fed good quality hay (no concentrated rations) and water ad libitum. Following a five day acclimation period, the sheep are randomly assigned by EPG count into the following treatment groups: Groups 1-9, various anthelmintic compounds of the present invention (test compound) dissolved in DMSO: […] Group 11, non-treated Negative control (DMSO only). The first replicate of 1 I animals is randomly assigned to groups 1-1; the second replicate of 11 animals is randomly assigned to groups 1-11; and the third replicate of 11 animals is randomly assigned to groups 1-1. Thus 11 groups of 3 animals each are created. The placebo (DMSO), the commercially available drug, and the test anthelmintic compounds are administered in a 3 ml volume of DMSO by subcutaneous injection using a sterile syringe fitted with a sterile needle. The site of injection is clipped and swabbed with alcohol prior to injection. The animal is adequately immobilized for injection of the placebo, commercially available drug, or experimental compound. Seven days following treatment, all the sheep are weighed and humanely slaughtered in accordance with the Guide for the Care and Use of Laboratory Animals (DHEW Publication No. 86-23). Necropsy procedures are according to Zimmerman Research SOP # […].00.01, Necropsy for Helminth Recovery, specifically for gastrointestinal nematodes. Fecal samples are taken for EPG counts during the sample collection process on this day. Nematodes are recovered, identified, and enumerated according to Zimmerman Research SOP # […].00.01. All individuals performing nematode recoveries are blinded to treatment versus control animals.

[3] = Ivermectin 200 mcg/kg, controlled test procedure

In the case of 22,23-dihydroavermectin B1 [ivermectin], the “% Change, Strongyles EPG-5 day vs EPG-pre, Total/Mean” value ([1]; Ivermectin 200 mcg/kg) is reported as 100.00%, the “Strongyles EPG-5 day (22-May), Total/Mean” value ([1]; Ivermectin 200 mcg/kg) is reported as 0.00 EPG and the “% Change, Strongyles EPG-7 day vs EPG-pre, Total/Mean” value ([1]; Ivermectin 200 mcg/kg) is reported as 100.00%. The “Strongyles EPG-7 day (24-May), Total/Mean” value ([1]; Ivermectin 200 mcg/kg) was 0.00 EPG, the “Strongyles EPG-5 day (22-May)” value ([1]; Ivermectin 200 mcg/kg) was 0 EPG and the “% Change, Strongyles EPG-7 day vs EPG-pre” value ([1]; Ivermectin 200 mcg/kg) was 100.00%. The “Strongyles EPG-7 day (24-May)” value ([1]; Ivermectin 200 mcg/kg) was 0 EPG, the “% Efficacy, Abomasum Haemonchus” value [2, 3] was 86% and the “% Efficacy, Abomasum ostertagia” value [2, 3] was 100%. The “% Efficacy, Small Intest. Nematodirus” value [2, 3] was 98%, the “% Efficacy, Small Intestine Trichostrongylus” value [2, 3] was 100% and the “Mean Ct., Abomasum Haemonchus” value ([2]; Ivermectin 200 mcg/kg) was 7. For the same molecule, the “Mean Ct., Abomasum Ostertagia” value ([2]; Ivermectin 200 mcg/kg) was 0, the “Mean Ct., Large Intest. Trichuris” value ([2]; Ivermectin 200 mcg/kg) was 0 and the “Mean Ct., Small Intest. Nematodirus” value ([2]; Ivermectin 200 mcg/kg) was 67. For the same molecule, the “Mean Ct., Small Intestine Trichostrongylus” value ([2]; Ivermectin 200 mcg/kg) was 0, the “Worm Counts, Abomasum Haemonchus” value ([2]; Ivermectin 200 mcg/kg) was 0 (2×) and 20 and the “Worm Counts, Abomasum ostertagia” value ([2]; Ivermectin 200 mcg/kg) was 0. For the same molecule, the “Worm Counts, Large Intest. Trichuris” value ([2]; Ivermectin 200 mcg/kg) was 0, the “Worm Counts, Small Intest. Nematodirus” value ([2]; Ivermectin 200 mcg/kg) was 100 (2×) and 0 and the “Worm Counts, Small Intestine Trichostrongylus” value ([2]; Ivermectin 200 mcg/kg) was 0.
CCC1CCCCN1c1cc(Oc2ccc3oc4ccccc4c3c2)ncn1 (stereo not drawn) [AKC 109] was tested, and the “% Change, Strongyles EPG-5 day vs EPG-pre, Total/Mean” value ([1]; AKC 109 .8 mg/kg) was 51.49%, the “Strongyles EPG-5 day (22-May), Total/Mean” value ([1]; AKC 109 .8 mg/kg) was 245.00 EPG and the “% Change, Strongyles EPG-7 day vs EPG-pre, Total/Mean” value ([1]; AKC 109 .8 mg/kg) was 50.50%. For the same molecule, the “Strongyles EPG-7 day (24-May), Total/Mean” value ([1]; AKC 109 .8 mg/kg) was 250.00 EPG, the “Strongyles EPG-5 day (22-May)” value ([1]; AKC 109 .8 mg/kg) was 360 EPG and 130 EPG and the “% Change, Strongyles EPG-7 day vs EPG-pre” value ([1]; AKC 109 .8 mg/kg) was 63.93% and 30.00%. For the same molecule, the “Strongyles EPG-7 day (24-May)” value ([1]; AKC 109 .8 mg/kg) was 220 EPG and 280 EPG, the “% Efficacy, Abomasum Haemonchus” value ([2]; AKC 109 .8 mg/kg, controlled test procedure) was 100% and the “Mean Ct., Abomasum Haemonchus” value ([2]; AKC 109 .8 mg/kg) was 0. For the same molecule, the “Mean Ct., Abomasum Ostertagia” value ([2]; AKC 109 .8 mg/kg) was 690, the “Mean Ct., Large Intest. Trichuris” value ([2]; AKC 109 .8 mg/kg) was 3 and the “Mean Ct., Small Intest. Nematodirus” value ([2]; AKC 109 .8 mg/kg) was 7120. The “Mean Ct., Small Intestine Trichostrongylus” value ([2]; AKC 109 .8 mg/kg) was 130, the “Worm Counts, Abomasum Haemonchus” value ([2]; AKC 109 .8 mg/kg) was 0 and the “Worm Counts, Abomasum ostertagia” value ([2]; AKC 109 .8 mg/kg) was 1100 and 280. The “Worm Counts, Large Intest. Trichuris” value ([2]; AKC 109 .8 mg/kg) was 5 and 0, the “Worm Counts, Small Intest. Nematodirus” value ([2]; AKC 109 .8 mg/kg) was 12020 and 2220 and the “Worm Counts, Small Intestine Trichostrongylus” value ([2]; AKC 109 .8 mg/kg) was 240 and 20.
